Experimental findings from patent US20160039880A1 (priority 2012, published 2016) are described below.

Series [1] addresses T1, Human recombinant cyclophilin A (Cyp A) (Homo sapiens, UniProt P62937).
Series [2] has as its target T1, Human recombinant cyclophilin A (Cyp A). Nature of the series: Protease-free PPIase assay.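 Also: cis to trans isomerization of SUC-AAPF-pNA by 2 nM enzyme, read as absorbance at 330 nm over 300 s at 10 °C, catalytic rate corrected for uncatalyzed background.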
Series [3] can be described thus: Water Solubility Assay (measured in pH 7.8 buffer).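 As to all read-outs here: precipitation onset detected as rise in absorbance at 650 nm across increasing concentrations, after shaking for 18 h, blank wells receiving DMSO only.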 In kind it is physicochemical. To be noted: for solubility at 18 h: kinetic from dmso stock.
[4] abbreviates: 35 mM HEPES buffer pH 7.8, 25 °C, aqueous buffer, pH 7.8 buffer, read-out: Water Solubility Assay.

Converted amounts (≈) assume the structure as drawn. Like-named read-outs stand apart in the source and are kept apart here.

T1 sequence (P62937 whole entry): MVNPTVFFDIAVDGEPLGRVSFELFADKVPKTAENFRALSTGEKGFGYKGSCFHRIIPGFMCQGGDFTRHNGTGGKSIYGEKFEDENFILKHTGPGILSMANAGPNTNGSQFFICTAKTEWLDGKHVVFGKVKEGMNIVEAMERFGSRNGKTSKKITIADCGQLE

In the case of `CC[C@H]1NC(=O)[C@@H]([C@H](O)[C@H](C)CCNCCOC)N(C)C(=O)[C@@H](C(C)C)N(C)C(=O)[C@@H](CC(C)C)N(C)C(=O)[C@@H](CC(C)C)N(C)C(=O)[C@H](C)NC(=O)[C@@H](C)NC(=O)[C@@H](CC(C)C)N(C)C(=O)[C@@H](C(C)C)NC(=O)[C@H](CC(C)C)N(C)C(=O)[C@@H](C)N(C)C1=O` [Compound AF, [(3R,4R,5S)-4-Hydroxy-3-methyl-5-(methylamino)-1-(2-methoxyethylamino)-hexanoic acid]^1[(R)-methyl-Sar]^3 cyclosporin A], the Ki in series [1] came out at 28 nM.

For `CC[C@H]1NC(=O)[C@@H]([C@H](O)[C@H](C)CCN2CCOC[C@H]2C)N(C)C(=O)[C@@H](C(C)C)N(C)C(=O)[C@@H](CC(C)C)N(C)C(=O)[C@@H](CC(C)C)N(C)C(=O)[C@H](C)NC(=O)[C@@H](C)NC(=O)C(CC(C)C)N(C)C(=O)[C@@H](C(C)C)NC(=O)[C@H](CC(C)C)N(C)C(=O)[C@@H](C)N(C)C1=O` (stereo partly drawn) [Compound DT, [(3R,4R,5S)-4-Hydroxy-3-methyl-5-methylamino-((R)-3-methyl-morpholin-4-yl)-hexanoic acid]^1[(R)-methyl-Sar]^3 cyclosporin A], the Ki in series [2] came out at 4.7 nM. Moreover, the solubility at 18 h in series [3] (25 °C, pH 7.8, aqueous buffer) is above 100 µM.

Consider `CC[C@H]1NC(=O)[C@@H]([C@H](O)[C@H](C)CCN2CCn3cnnc3C2)N(C)C(=O)[C@@H](C(C)C)N(C)C(=O)[C@@H](CC(C)C)N(C)C(=O)[C@@H](CC(C)C)N(C)C(=O)[C@H](C)NC(=O)[C@@H](C)NC(=O)C(CC(C)C)N(C)C(=O)[C@@H](C(C)C)NC(=O)[C@H](CC(C)C)N(C)C(=O)[C@@H](C)N(C)C1=O` (stereo partly drawn) [Compound DU, [(3R,4R,5S)-1-(5,6-Dihydro-8H-[1,2,4]triazolo[4,3-a]pyrazin-7-yl)-4-Hydroxy-3-methyl-5-(methylamino)-hexanoic acid]^1[(R)-methyl-Sar]^3 cyclosporin A], for which the inhibition constant Ki in series [2] was determined as 9.2 nM. In series [3] (setting [4]), the solubility at 18 h was above 100 µM.

For `CC[C@H]1NC(=O)[C@@H]([C@H](O)[C@H](C)CCN2CC3CCC(C2)O3)N(C)C(=O)[C@@H](C(C)C)N(C)C(=O)[C@@H](CC(C)C)N(C)C(=O)[C@@H](CC(C)C)N(C)C(=O)[C@H](C)NC(=O)[C@@H](C)NC(=O)C(CC(C)C)N(C)C(=O)[C@@H](C(C)C)NC(=O)[C@H](CC(C)C)N(C)C(=O)[C@@H](C)N(C)C1=O` (stereo partly drawn) [Compound DV, [(3R,4R,5S)-4-Hydroxy-3-methyl-5-(methylamino)-1-(8-oxa-3-aza-bicyclo[3.2.1]oct-3-yl)-hexanoic acid]^1[(R)-methyl-Sar]^3 cyclosporin A], in series [2], the Ki came to 4.3 nM. Moreover, in series [3] (25 °C, pH 7.8, aqueous buffer), the solubility at 18 h lay within 50 to 75 µM (≈ 65.1 to 97.6 µg/mL).

Consider `CC[C@H]1NC(=O)[C@@H]([C@H](O)[C@H](C)CCN2CCOC[C@@H]2C)N(C)C(=O)[C@@H](C(C)C)N(C)C(=O)[C@@H](CC(C)C)N(C)C(=O)[C@@H](CC(C)C)N(C)C(=O)[C@H](C)NC(=O)[C@@H](C)NC(=O)C(CC(C)C)N(C)C(=O)[C@@H](C(C)C)NC(=O)[C@H](CC(C)C)N(C)C(=O)[C@@H](C)N(C)C1=O` (stereo partly drawn) [Compound DW, [(3R,4R,5S)-4-Hydroxy-3-methyl-5-(methylamino)-1-((S)-3-methyl-morpholin-4-yl)-hexanoic acid]^1[(R)-methyl-Sar]^3 cyclosporin A], for which the Ki in series [2] is 6.5 nM. The solubility at 18 h in series [3] (25 °C, pH 7.8, aqueous buffer) is above 100 µM.

As to `CC[C@H]1NC(=O)[C@@H]([C@H](O)[C@H](C)CCN2CCOc3ccccc32)N(C)C(=O)[C@@H](C(C)C)N(C)C(=O)[C@@H](CC(C)C)N(C)C(=O)[C@@H](CC(C)C)N(C)C(=O)[C@H](C)NC(=O)[C@@H](C)NC(=O)C(CC(C)C)N(C)C(=O)[C@@H](C(C)C)NC(=O)[C@H](CC(C)C)N(C)C(=O)[C@@H](C)N(C)C1=O` (stereo partly drawn) [Compound DX, [(3R,4R,5S)-1-(2,3-Dihydro-benzo[1,4]oxazin-4-yl)-4-Hydroxy-3-methyl-5-(methylamino)-hexanoic acid]^1[(R)-methyl-Sar]^3 cyclosporin A], the Ki in series [2] was 5.2 nM. In series [3] (setting [4]), the solubility at 18 h was 25 to 50 µM (≈ 33.1 to 66.2 µg/mL).

Consider `CC[C@H]1NC(=O)[C@@H]([C@H](O)[C@H](C)CCN2CCC3(CC2)OCCO3)N(C)C(=O)[C@@H](C(C)C)N(C)C(=O)[C@@H](CC(C)C)N(C)C(=O)[C@@H](CC(C)C)N(C)C(=O)[C@H](C)NC(=O)[C@@H](C)NC(=O)C(CC(C)C)N(C)C(=O)[C@@H](C(C)C)NC(=O)[C@H](CC(C)C)N(C)C(=O)[C@@H](C)N(C)C1=O` (stereo partly drawn) [Compound DY, [(3R,4R,5S)-1-(1,4-Dioxa-8-aza-spiro[4.5]dec-8-yl)-4-Hydroxy-3-methyl-5-(methylamino)-hexanoic acid]^1[(R)-methyl-Sar]^3 cyclosporin A], for which, in series [2], the Ki stood at 13 nM. In series [3] (setting [4]), the solubility at 18 h is above 100 µM.

Turning to `CC[C@H]1NC(=O)[C@@H]([C@H](O)[C@H](C)CCN2CCOC(c3ccccc3)C2)N(C)C(=O)[C@@H](C(C)C)N(C)C(=O)[C@@H](CC(C)C)N(C)C(=O)[C@@H](CC(C)C)N(C)C(=O)[C@H](C)NC(=O)[C@@H](C)NC(=O)C(CC(C)C)N(C)C(=O)[C@@H](C(C)C)NC(=O)[C@H](CC(C)C)N(C)C(=O)[C@@H](C)N(C)C1=O` (stereo partly drawn) [Compound DZ, [(3R,4R,5S)-4-Hydroxy-3-methyl-5-(methylamino)-1-(2-phenyl-morpholin-4-yl)-hexanoic acid]^1[(R)-methyl-Sar]^3 cyclosporin A], in series [2], the Ki stood at 6 nM. Also, the solubility at 18 h in series [3] (setting [4]) was in the range of 25 to 50 µM (≈ 33.8 to 67.6 µg/mL).

For `CC[C@H]1NC(=O)[C@@H]([C@H](O)[C@H](C)CCN2CCOCC2)N(C)C(=O)[C@@H](C(C)C)N(C)C(=O)[C@@H](CC(C)C)N(C)C(=O)[C@@H](CC(C)C)N(C)C(=O)[C@H](C)NC(=O)[C@@H](C)NC(=O)[C@@H](CC(C)C)N(C)C(=O)[C@@H](C(C)C)NC(=O)[C@H](CC(C)C)N(C)C(=O)[C@@H](SC(C)C)N(C)C1=O` [Compound I, [(3R,4R,5S)-4-Hydroxy-3-methyl-5-(methylamino)-1-N-morpholino-hexanoic acid]^1[(S)-thio-isopropyl-Sar]^3 cyclosporin A], the Ki in series [2] was determined as 7.7 nM. In series [3] (25 °C, pH 7.8, aqueous buffer), this molecule had a solubility at 18 h of 25 to 50 µM (≈ 33.4 to 66.8 µg/mL).

For `CCC1NC(=O)C(C(O)C(C)CCN(CC)CC)N(C)C(=O)C(C(C)C)N(C)C(=O)C(CC(C)C)N(C)C(=O)C(CC(C)C)N(C)C(=O)C(C)NC(=O)C(C)NC(=O)C(CC(C)C)N(C)C(=O)C(C(C)C)NC(=O)C(CC(C)C)N(C)C(=O)C(C)N(C)C1=O` [Compound M, [(3R,4R,5S)-4-hydroxy-3-methyl-5-(methylamino)-1-N-diethylamino-hexanoic acid]^1[(R)-Me-Sar]^3 cyclosporin A], in series [2] (read-out: Protease-free PPIase Assay Ki, cyclophilin A, 10 °C), the Ki turned out to be 90 nM. Also, the “Water Solubility Assay, concentration at which the compound remains in solution” value in series [3] (35 mM HEPES pH 7.8, 1% DMSO, 25 °C, 18 h) lay within 75 to 100 µM.

For the molecule `CC[C@H]1NC(=O)[C@@H]([C@H](O)[C@H](C)CCN2CCOCC2)N(C)C(=O)[C@@H](C(C)C)N(C)C(=O)[C@@H](CC(C)C)N(C)C(=O)[C@@H](CC(C)C)N(C)C(=O)[C@H](C)NC(=O)[C@@H](C)NC(=O)[C@@H](CC(C)C)N(C)C(=O)[C@@H](C(C)C)NC(=O)[C@H](CC(C)C)N(C)C(=O)[C@@H](CO)N(C)C1=O` [Compound V, [(3R,4R,5S)-4-Hydroxy-3-methyl-5-(methylamino)-1-N-morpholino-hexanoic acid]^1[(R)-hydroxymethyl-Sar]^3 cyclosporin A], the inhibitory constant (Ki) in series [2] was 4.5 nM. Further, in series [3] (25 °C, pH 7.8, aqueous buffer), the solubility at 18 h was above 100 µM.

As usually defined, the Ki is the dissociation constant of the complex between target and ligand, obtained from inhibition or displacement. A word on the solubility: it is how much of the substance goes into solution per volume.
